For data set [1], the target named is Melanin-concentrating hormone receptor 1 (Homo sapiens, UniProt Q99705). In words: Inhibition of 125I-MCH binding to human MCH-R1 expressed in CHO cell membranes.
Data set [2] deals with Mus musculus. Nature of the data set: Inhibition of ex vivo MCH-R1 binding following 30 mg/kg peroral dose in mice after 6hr. Particulars: route oral. Format: functional.
Data set [3] in a line: AUC (0-6hr) in rats following 10 mg/kg peroral dose. Format: ADME, organism-based. Details: time < 6 hr, dose 10 mg/kg, route oral. Particulars: rat, plasma, po.

We go through eleven compounds from ChEMBL document CHEMBL1137583 (Bioorg Med Chem Lett, 2007).

Each structure is given as a SMILES string. pKi: −log10 of the molar value.

Sequence of Melanin-concentrating hormone receptor 1 (Q99705 whole entry): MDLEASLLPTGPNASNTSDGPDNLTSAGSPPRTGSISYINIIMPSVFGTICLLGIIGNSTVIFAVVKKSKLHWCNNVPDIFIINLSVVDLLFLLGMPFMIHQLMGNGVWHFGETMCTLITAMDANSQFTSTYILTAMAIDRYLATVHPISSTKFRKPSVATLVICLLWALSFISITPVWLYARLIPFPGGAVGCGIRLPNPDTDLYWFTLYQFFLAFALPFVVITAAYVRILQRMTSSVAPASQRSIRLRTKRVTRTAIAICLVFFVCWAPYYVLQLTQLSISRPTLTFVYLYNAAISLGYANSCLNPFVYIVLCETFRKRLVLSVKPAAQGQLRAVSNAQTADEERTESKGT

As usually defined, the pKi is the Ki on a negative log10 scale, so that one unit is a factor of ten. A higher pKi goes with a small Ki. As for `CN1CCN(CCCN(C(=O)Nc2ccc(F)c(Cl)c2)C2CCc3ccc(N)cc3C2)CC1` (centres undefined), the pKi in data set [1] is 6.59. As to `CNS(=O)(=O)c1ccc2c(c1)CC(N(CCCN1CCN(C)CC1)C(=O)Nc1ccc(F)c(Cl)c1)CC2` (centres undefined), in data set [1], the pKi was 5.52.

`CN1CCN(CCCN(C(=O)Nc2ccc(F)c(Cl)c2)C2CCc3ccccc3C2)CC1` (centres undefined) showed a pKi in data set [1] of 6.42. Same read-out and setting: the same measure for `CCNC(=O)Nc1ccc2c(c1)CC(N(CCCN1CCN(C)CC1)C(=O)Nc1ccc(F)c(Cl)c1)CC2` (centres undefined): 6.80; for `CN1CCN(CCCN(C(=O)Nc2ccc(F)c(Cl)c2)C2CCc3ccc(S(C)(=O)=O)cc3C2)CC1` (centres undefined): 5.89. In turn, `CN1CCN(CCCN(C(=O)Nc2ccc(F)c(Cl)c2)[C@@H]2CC[C@]3(c4cccc(C#N)c4)C[C@@H]3C2)CC1` had a pKi in data set [1] of 8.40. Still for that read-out and setting: the result for `CN1CCN(CCCN(C(=O)Nc2ccc(F)c(Cl)c2)C2CCc3cc(C#N)ccc3C2)CC1` (centres undefined) reads 6.47. The term inhibition in vivo denotes the relative decrease from the control value, in per cent. One may read the AUC(0-t) as the area under the concentration-time curve up to a stated or last time point. Low readings indicate less exposure, high ones more exposure. The compound `CC(=O)Nc1ccc2c(c1)CC(N(CCCN1CCN(C)CC1)C(=O)Nc1ccc(F)c(Cl)c1)CC2` (centres undefined) displayed an inhibition in vivo at 30 mg/kg in data set [2] of 23%. Further, the AUC(0-t) at 6 h in data set [3] stood at 195 ng·h/mL. In data set [1], `CN1CCN(CCCN(C(=O)Nc2ccc(F)c(Cl)c2)C2CCc3ccc(C#N)cc3C2)CC1` (centres undefined) gave a pKi of 8.07. In addition, the inhibition in vivo at 30 mg/kg in data set [2] came to 84%. The AUC(0-t) at 6 h in data set [3] was 642 ng·h/mL. `COc1ccc2c(c1)CCC(N(CCCN1CCN(C)CC1)C(=O)Nc1ccc(F)c(Cl)c1)C2` (centres undefined) gave a pKi in data set [1] of 6.72.

On to `CN1CCN(CCCN(C(=O)Nc2ccc(F)c(Cl)c2)C2CCc3ccc(S(=O)(=O)N(C)C)cc3C2)CC1` (centres undefined), for which the pKi in data set [1] is 5.52.
